Data from patent US9290440B2, “Bicyclic compound” (TOA EIYO LTD., priority 2012, dated 2016).
Read-outs that look alike come from different tables or passages of the source.

Key:
[1] = target: T1, human sGC α subunit and β subunit (Homo sapiens, UniProt Q02153); test: Heme-independent property of sGC activating function (EC50 ratio, CHO-K1 cells expressing human sGC and mouse CNGA2); type: cell-based; settings: EC50 in the absence of ODQ divided by EC50 in the presence of ODQ, sGC activation
T1 construct: expressed in transfected cells
T1 sequence (Q02153 1-619): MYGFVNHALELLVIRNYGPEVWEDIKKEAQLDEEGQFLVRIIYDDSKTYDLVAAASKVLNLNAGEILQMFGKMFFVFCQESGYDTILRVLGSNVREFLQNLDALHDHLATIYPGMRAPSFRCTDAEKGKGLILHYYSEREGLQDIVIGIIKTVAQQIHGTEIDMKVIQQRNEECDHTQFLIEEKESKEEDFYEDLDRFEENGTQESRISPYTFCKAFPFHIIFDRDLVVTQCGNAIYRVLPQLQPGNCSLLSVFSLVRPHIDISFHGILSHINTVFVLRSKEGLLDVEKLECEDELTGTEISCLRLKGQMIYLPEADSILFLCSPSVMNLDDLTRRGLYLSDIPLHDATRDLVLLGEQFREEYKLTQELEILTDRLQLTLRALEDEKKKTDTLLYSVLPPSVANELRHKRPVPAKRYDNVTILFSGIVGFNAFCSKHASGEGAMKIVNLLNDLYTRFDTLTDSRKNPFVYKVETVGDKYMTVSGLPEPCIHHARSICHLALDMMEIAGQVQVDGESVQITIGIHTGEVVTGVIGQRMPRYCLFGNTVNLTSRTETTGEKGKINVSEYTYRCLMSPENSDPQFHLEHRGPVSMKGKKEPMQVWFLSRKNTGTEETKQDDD
T1 sequence (Q02108 1-690 partner): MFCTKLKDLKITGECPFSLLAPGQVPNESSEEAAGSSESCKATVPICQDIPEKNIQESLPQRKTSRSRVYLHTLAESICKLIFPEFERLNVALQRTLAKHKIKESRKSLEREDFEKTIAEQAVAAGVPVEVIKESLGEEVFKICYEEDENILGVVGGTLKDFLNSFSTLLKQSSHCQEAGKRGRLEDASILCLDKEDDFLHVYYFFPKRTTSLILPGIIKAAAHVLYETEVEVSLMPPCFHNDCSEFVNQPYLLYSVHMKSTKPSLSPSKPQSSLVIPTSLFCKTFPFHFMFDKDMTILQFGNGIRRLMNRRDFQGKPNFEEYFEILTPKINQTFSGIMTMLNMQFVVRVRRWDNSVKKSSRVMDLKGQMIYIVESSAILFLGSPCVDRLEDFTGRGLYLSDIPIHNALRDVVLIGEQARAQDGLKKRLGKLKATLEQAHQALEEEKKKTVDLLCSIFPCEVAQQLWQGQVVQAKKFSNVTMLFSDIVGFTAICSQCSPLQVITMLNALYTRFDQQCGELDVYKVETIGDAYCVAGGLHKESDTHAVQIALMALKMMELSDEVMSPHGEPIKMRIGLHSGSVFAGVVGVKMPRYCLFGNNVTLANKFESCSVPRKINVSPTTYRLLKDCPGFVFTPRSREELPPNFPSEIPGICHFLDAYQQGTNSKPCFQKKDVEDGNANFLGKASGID
Description: (§1) For the assay, Chinese hamster ovary cells (CHO-K1 cells) in which human sGC α subunit and β subunit and mouse cyclic nucleotide gated channel (CNGA2) are stably expressed were used.
(§2) CHO-K1 cells in which human sGC and mouse CNGA2 are stably expressed were cultured at 37° C. in F-12 medium containing 10% (v/v) fetal bovine serum (FBS), penicillin (100 U/mL), streptomycin (100 μg/mL), G418 (250 μg/mL), and zeocin (250 μg/mL). The cells were suspended in the culture medium and seeded onto a 96-well plate, and then cultured at 37° C. for 24 hours. After washing with assay buffer 1 (140 mmol/L sodium chloride, 5 mmol/L potassium chloride, 0.5 mmol/L magnesium chloride, 0.01 mmol/L calcium chloride, 10 mmol/L glucose, 0.4 mmol/L magnesium sulfate, 10 mmol/L 4-(2-hydroxyethyl)piperazin-1-ylethane sulfonic acid, and 125 μmol/L sulfinpyrazone, pH 7.4), an indicator solution in which FURA2-AM as a fluorescent Ca^2+ indicator is dissolved at concentration of 5 μmol/L in assay buffer 1 was added followed by culture for 60 minutes at 37° C. The indicator solution was removed. After washing with assay buffer 1, the test compound solution was added and incubated for 10 minutes at room temperature. The plate was placed in a fluorometer (Flex Station II, Molecular Devices, LLC), and then the intracellular calcium concentration was measured as fluorescence intensity ratio which is obtained from each excitation wavelength (excitation wavelength of 340 nm and 380 nm and detection wavelength of 510 nm).
(§3) The test compound solution was prepared by dissolving each of the test compounds in DMSO to a concentration of 10 mmol/L, and then adding the assay buffer 2 (140 mmol/L sodium chloride, 5 mmol/L potassium chloride, 0.5 mmol/L magnesium chloride, 1 mmol/L calcium chloride, 10 mmol/L glucose, 0.4 mmol/L magnesium sulfate, 10 mmol/L 4-(2-hydroxyethyl)piperazin-1-ylethane sulfonic acid, 125 μmol/L sulfinpyrazone, 100 μmol/L isobutylmethylxanthine, 10 μmol/L 1H-[1,2,4]-oxadiazole[4,3-a]quinoxalin-1-one (hereinbelow, ODQ), pH 7.4) for dilution to have test concentration of 10 μmol/L. For the evaluation of a case in which ODQ is not contained, the same evaluation was performed except that ODQ is excluded from assay buffer 2. As a control solution, a DMSO solution was used instead of the test compound solution.
(§4) The activity of the test compound corresponds to the increase ratio (%) of the sGC activity at the time of adding the test compound solution with respect to the sGC activity at the time of adding the control solution, and it was calculated by dividing the fluorescence intensity ratio at the time of adding the test compound by the fluorescence intensity ratio of the control solution and subtracting the sGC activity (100%) at the time of adding the control solution.
For the representative compounds, activity was measured in the same manner as Test Example 1 at each test concentration of 0.0001, 0.001, 0.003, 0.01, 0.03, 0.1, 1, and 10 μmol/L.
The degree of heme-independent property of each test compound with regard to sGC activating function was obtained by dividing, for EC50 measured from the concentration-activation curve which has been established from the above, EC50 in the absence of ODQ by EC50 in the presence of ODQ. Specifically, the smaller the EC50 ratio is, the less the change in sGC activating function is, the change in the function being caused by the presence or absence of ODQ, and thus it is found to be more heme-independent.
EC50 value was obtained by measuring the activity of each compound to be tested at concentrations of 0.0001, 0.001, 0.003, 0.01, 0.03, 0.1, 1, and 10 μmol/L and performing the calculation using four-parameter logistics model using Assay Explorer (Accelrys).

[2] = target: T1, human sGC α subunit and β subunit; test: Maximum effect of sGC activating function (Ca2+ fluorescence in CHO-K1 cells expressing human sGC and mouse CNGA2); type: cell-based; settings: increase ratio of sGC activity vs control solution at 10 μmol/L test compound
Description: as §1, §2, §3, §4
In this assay, intracellular cGMP concentration increases as sGC is activated, and according to opening of CNGA2 following the increase of cGMP, intracellular Ca^2+ concentration increases. Thus, SGC activation can be measured by following the change in intracellular Ca^2+ concentration. […] Thus, in the absence of ODQ, the maximum sGC activating function including the heme-dependent activation can be evaluated while the heme-independent sGC activating function can be evaluated in the presence of ODQ.

[3] = ODQ not contained, read-out: Emax (%) ODQ− (Heme-dependent)
[4] = with 10 μmol/L ODQ, read-out: Emax (%) ODQ+ (Heme-independent)

| EC50 Ratio (ODQ−/ODQ+) [1] | Emax at 10 µM [2, 3] [%] | Emax at 10 µM [2, 4] [%] | Structure (SMILES) |
| --- | --- | --- | --- |
| 2.86 | 85.6 | 103 | O=C(O)CCCCN(CCc1ccccc1OCc1ccc(CCc2ccccc2)cc1)C1CCc2cc(C(=O)O)ccc21 (stereo not drawn) [Example 1, 1-{N-(4-Carboxybutyl)-N-[2-[2-[4-(2-phenylethyl)benzyloxy]phenyl]ethyl]amino}indane-5-carboxylic acid] |
| 2.67 | 97.5 | 109 | O=C(O)CCCCN(CCc1ccccc1OCc1ccc(CCc2ccccc2)cc1)C1CCCc2cc(C(=O)O)ccc21 (stereo not drawn) [Example 2, 5-{N-(4-Carboxybutyl)-N-[2-[2-[4-(2-phenylethyl)benzyloxy]phenyl]ethyl]amino}-5,6,7,8-tetrahydronaphthalene-2-carboxylic acid] |
| 2.54 | 102 | 111 | O=C(O)CCCCN(CCc1ccccc1OCc1ccc(CCc2ccccc2)cc1)C1CCCCc2cc(C(=O)O)ccc21 (stereo not drawn) [Example 3, 5-{N-(4-Carboxybutyl)-N-[2-[2-[4-(2-phenylethyl)benzyloxy]phenyl]ethyl]amino}-6,7,8,9-tetrahydro-5H-benzocycloheptene-2-carboxylic acid] |
| 2.85 | 114 | 109 | O=C(O)CCCCN(CCc1ccccc1OCc1ccc(CCc2ccccc2)cc1)C1CCOc2cc(C(=O)O)ccc21 (stereo not drawn) [Example 4, 4-{N-(4-Carboxybutyl)-N-[2-[2-[4-(2-phenylethyl)benzyloxy]phenyl]ethyl]amino}chromane-7-carboxylic acid] |
| – | 84.5 | 86.9 | O=C(O)CCCCN(CCc1ccccc1OCc1ccc(CCc2ccccc2)cc1)C1CCSc2cc(C(=O)O)ccc21 (stereo not drawn) [Example 5, 4-{N-(4-Carboxybutyl)-N-[2-[2-[4-(2-phenylethyl)benzyloxy]phenyl]ethyl]amino}thiochromane-7-carboxylic acid] |
| – | 64.2 | 87.2 | O=C(O)CCCCN(CCc1ccccc1OCc1ccccc1Cl)C1CCCc2cc(C(=O)O)ccc21 (stereo not drawn) [Example 13, 5-{N-(4-Carboxybutyl)-N-[2-[2-(2-chlorobenzyloxyl)phenyl]ethyl]amino}-5,6,7,8-tetrahydronaphthalene-2-carboxylic acid] |
| – | 116 | 97.5 | O=C(O)CCCCN(CCc1ccccc1OCc1ccc(COc2ccccc2)cc1)C1CCCc2cc(C(=O)O)ccc21 (stereo not drawn) [Example 16, 5-{N-(4-Carboxybutyl)-N-[2-[2-(4-phenoxymethylbenzyloxy)phenyl]ethyl]amino}-5,6,7,8-tetrahydronaphthalene-2-carboxylic acid] |
| – | 115 | 91.8 | O=C(O)CCCCN(CCc1ccccc1OCc1ccc(CSc2ccccc2)cc1)C1CCCc2cc(C(=O)O)ccc21 (stereo not drawn) [Example 17, 5-{N-(4-Carboxybutyl)-N-[2-[2-(4-phenylsulfanylmethylbenzyloxy)phenyl]ethyl]amino}-5,6,7,8-tetrahydronaphthalene-2-carboxylic acid] |
| – | 88.7 | 88 | C#Cc1ccc(COc2ccccc2CCN(CCCCC(=O)O)C2CCCc3cc(C(=O)O)ccc32)cc1 (stereo not drawn) [Example 19, 5-{N-(4-Carboxybutyl)-N-[2-[2-(4-ethynylbenzyloxy)phenyl]ethyl]amino}-5,6,7,8-tetrahydronaphthalene-2-carboxylic acid] |
| – | 108 | 100 | O=C(O)CCCCN(CCc1ccccc1OCc1ccc(C#CC2CCCCC2)cc1)C1CCCc2cc(C(=O)O)ccc21 (stereo not drawn) [Example 22, 5-{N-(4-Carboxybutyl)-N-[2-[2-(4-cyclohexylethynylbenzyloxy)phenyl]ethyl]amino}-5,6,7,8-tetrahydronaphthalene-2-carboxylic acid] |
| – | 135 | 114 | O=C(O)CCCCN(CCc1ccccc1OCc1ccc(CCC2CCCCC2)cc1)C1CCCc2cc(C(=O)O)ccc21 (stereo not drawn) [Example 24, 5-{N-(4-Carboxybutyl)-N-[2-[2-[4-(2-cyclohexylethyl)benzyloxy]phenyl]ethyl]amino}-5,6,7,8-tetrahydronaphthalene-2-carboxylic acid] |
| – | 119 | 86.9 | O=C(O)CCCCN(CCc1ccccc1OC[C@H]1CC[C@H](CCc2ccccc2)CC1)C1CCCc2cc(C(=O)O)ccc21 (stereo partly drawn) [Example 26, 5-{N-(4-Carboxybutyl)-N-[2-[2-[trans-4-(2-phenylethyl)cyclohexylmethoxy]phenyl]ethyl]amino}-5,6,7,8-tetrahydronaphthalene-2-carboxylic acid] |
| – | 109 | 140 | CC(C)(C)c1cccc(COc2ccccc2CCN(CCCCC(=O)O)C2CCCc3cc(C(=O)O)ccc32)c1 (stereo not drawn) [Example 41, 5-{N-[2-[2-(3-tert-Butylbenzyloxy)phenyl]ethyl]-N-(4-carboxybutyl)amino}-5,6,7,8-tetrahydronaphthalene-2-carboxylic acid] |
